Results as given in article PMC11480233, “Structural insights into the Caprin-2 HR1 domain in canonical Wnt signaling” (The Journal of Biological Chemistry, 2024).

T1: hCap2_HR1 (HR1 domain of human Caprin-2) (Homo sapiens, UniProt Q6IMN6, R200E/R201E)
T1 construct: gene CAPRIN2; HR1 domain, aa S102-K351, E. coli BL21-CodonPlus-RIL, modified pET-28a with His tag and TEV site; His tag kept for lipid strip
T1 sequence (Q6IMN6 102-351 R200E/R201E): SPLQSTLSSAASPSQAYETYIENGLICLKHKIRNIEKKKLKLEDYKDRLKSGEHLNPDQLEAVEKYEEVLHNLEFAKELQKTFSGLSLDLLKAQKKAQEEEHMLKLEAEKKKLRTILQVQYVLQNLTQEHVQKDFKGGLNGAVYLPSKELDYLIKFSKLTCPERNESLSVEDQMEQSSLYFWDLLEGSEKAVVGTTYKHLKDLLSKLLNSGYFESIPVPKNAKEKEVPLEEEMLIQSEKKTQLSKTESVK

T2: hCap2_HR1 (HR1 domain of human Caprin-2) (Homo sapiens, UniProt Q6IMN6)
T2 construct: gene CAPRIN2; HR1 domain, aa S102-K351, E. coli BL21-CodonPlus-RIL, modified pET-28a with His tag and TEV site; His tag kept for lipid strip
T2 sequence (Q6IMN6 102-351): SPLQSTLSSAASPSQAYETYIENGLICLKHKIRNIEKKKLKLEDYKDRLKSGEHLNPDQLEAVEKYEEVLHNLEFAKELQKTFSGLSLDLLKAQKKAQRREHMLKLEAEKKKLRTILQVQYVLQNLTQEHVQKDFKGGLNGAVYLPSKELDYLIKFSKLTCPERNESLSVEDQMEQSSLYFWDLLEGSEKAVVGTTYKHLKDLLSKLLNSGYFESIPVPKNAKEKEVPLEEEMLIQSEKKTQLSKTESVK


Assays:
[1] = target: T1, hCap2_HR1 (HR1 domain of human Caprin-2); assay: biolayer interferometry (Octet Red96); format: binding; details: labelled compound; biotinylated PI4P immobilised on streptavidin sensors; 20 mM Tris pH 7.5, 150 mM NaCl, 0.2 mM DTT, 0.05% Tween-20, 0.2 mg/ml BSA
[2] = target: T2, hCap2_HR1 (HR1 domain of human Caprin-2); assay: biolayer interferometry (Octet Red96); format: binding; details: labelled compound; biotinylated PI4P immobilised on streptavidin sensors; 20 mM Tris pH 7.5, 150 mM NaCl, 0.2 mM DTT, 0.05% Tween-20, 0.2 mg/ml BSA
[3] = target: the molecule itself; assay: SEC; Superdex 200 with a calibration curve; estimated MW 66.45 kDa against theoretical 29.2 kDa

| Molecule | Kd [1] [µM] | Kd [2] [nM] | stoichiometry N [3] |
| --- | --- | --- | --- |
| biotinylated PI4P | 152 | 2000 | – |
| HR1 domain of human Caprin-2 (aa S102-K351) (domain or fragment, UniProt Q6IMN6 102-351, looked up, Caprin-2, human, HR1 domain construct, residues S102-K351, cloned from full-length human Caprin-2; Modified pET-28a vector with a TEV site in place of the thrombin site; A SeMet triple mutant I217M/L251M/L301M of the same limits was used for phasing; also called hCap2_HR1; Cap2_HR1) SPLQSTLSSAASPSQAYETYIENGLICLKHKIRNIEKKKLKLEDYKDRLKSGEHLNPDQLEAVEKYEEVLHNLEFAKELQKTFSGLSLDLLKAQKKAQRREHMLKLEAEKKKLRTILQVQYVLQNLTQEHVQKDFKGGLNGAVYLPSKELDYLIKFSKLTCPERNESLSVEDQMEQSSLYFWDLLEGSEKAVVGTTYKHLKDLLSKLLNSGYFESIPVPKNAKEKEVPLEEEMLIQSEKKTQLSKTESVK | – | – | 2 |
